Reference: paper PMC7802074, “Azanitrile Inhibitors of the SmCB1 Protease Target Are Lethal to Schistosoma mansoni: Structural and Mechanistic Insights into Chemotype Reactivity” (ACS Infectious Diseases, 2020)
Several values for one entry are separate records, joined by “and”; a condition that tells them apart may be missing. Equal values may be shown once. Read-outs that look alike come from different tables or passages of the source.

How the values were obtained:
recombinant SmCB1 = recombinant SmCB1 (Schistosoma mansoni, UniProt Q8MNY2, T185A/T300A); assay: SmCB1 kinetic inhibition assay with fluorogenic substrate Cbz-Phe-Arg-AMC; format: biochemical
Chain of recombinant SmCB1 (Q8MNY2 87-340 T185A/T300A): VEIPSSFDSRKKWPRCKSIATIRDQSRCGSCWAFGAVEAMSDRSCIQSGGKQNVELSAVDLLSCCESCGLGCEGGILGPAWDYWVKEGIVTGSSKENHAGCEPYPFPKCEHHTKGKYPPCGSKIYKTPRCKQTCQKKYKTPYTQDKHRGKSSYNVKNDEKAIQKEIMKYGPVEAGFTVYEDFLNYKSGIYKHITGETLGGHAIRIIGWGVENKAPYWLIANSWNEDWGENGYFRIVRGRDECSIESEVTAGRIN
Procedure: Inhibition measurements were performed in triplicates in 96-well microplates (100 μL assay volume) at 37 °C. SmCB1 (20–40 pM) was added to a mixture of the fluorogenic substrate Cbz-Phe-Arg-AMC (20 μM) and an inhibitor (0–100 μM) in 0.1 M sodium acetate, pH 5.5, containing 2.5 mM dithiothreitol and 0.1% PEG 6000. The substrate hydrolysis was monitored in an Infinite M1000 microplate reader (Tecan, Männedorf, Switzerland) at excitation and emission wavelengths of 360 and 465 nm, respectively, for up to 15 and 60 min for fast- and slow-binding inhibitors, respectively. […] For slow-binding inhibitors, an observed first-order rate constant kobs was calculated at each inhibitor concentration by fitting the progress curve to the equation P = vst + (vi – vs)(1 – […])/kobs + d, where P is the product formation, vs is the steady-state velocity, t is the reaction time, vi is the initial velocity, and d is the offset. The inhibition constant Ki′ was determined by nonlinear regression using the equation vs/v0 = 1/(1 + [I]/Ki′). The true inhibition constants Ki were then calculated using the equation Ki = Ki′/(1 + [S]/Km), where [S] is the substrate concentration and Km is the Michaelis constant. The apparent second-order rate constant k2nd′ was determined by fitting to the linear equation kobs = k2nd′[I] + koff, where koff is the first-order rate constants for the dissociation of the enzyme–inhibitor complex and the true constant k2nd was calculated by the correction k2nd = k2nd′(1 + [S]/Km). […] In none of the assay systems did the final concentration of DMSO exceed 1.5%.

[1] = tested on: S. mansoni newly transformed schistosomula (NTS); assay: Schistosome phenotypic assay; format: cell-based, Schistosoma mansoni; details: for Severity score Day 1 / Severity score Day 2 / Severity score Day 3 / Severity score Day 4: 10 μM inhibitor, scale 0 (no effect) to 4 (severe); for Severity score Day 1: 24 h; for Severity score Day 2: 48 h
Procedure: Newly transformed schistosomula (NTS) of S. mansoni were prepared by mechanically transforming infective larvae (cercariae) as described previously.[70],[71] NTS (200–300 parasites) were incubated in 200 μL of Basch Medium 169 containing 5% FBS, 100 U mL^–1 penicillin, and 100 μg mL^–1 streptomycin at 5% CO2 and 37 °C.[70],[72],[73] Inhibitors were added at the final concentration of 10 μM,[20],[69] and changes in phenotypes were observed every 24 h for up to 4 days. A constrained nomenclature of “descriptors” is used to record the multiple and dynamic changes in movement, shape, and translucence of which the schistosome parasite is capable (Table S3).[70] These descriptors are then converted into an ordinal “severity score” system from 0 (no effect) to 4 (maximum effect), which allows for the relative comparison of compound effects, as described.[74],[75] Images of NTS were captured using a Zeiss Axiovert 40 C inverted microscope (10× objective) and a Zeiss AxioCam MRc digital camera controlled by AxioVision 40 (v. 4.8.1.0) software.

[2] = Table S2, carbadipeptide nitriles, substrate Cbz-Phe-Arg-AMC, read-out: SmCB1 inhibition Ki
[3] = SmCB1 inhibition Ki, kinetic activity assay, substrate Cbz-Phe-Arg-AMC, pH 5.5, 37 °C

Compound: CC(C)[C@H](NC(=O)OC(C)(C)C)C(=O)NCC#N [Gü931]
- Ki (recombinant SmCB1; [2]): > 10 µM

Compound: CN(C#N)N(C)C(=O)[C@H](Cc1ccccc1)NC(=O)OCc1ccccc1 [Compound 2a]
- Descriptors Day 1 (phenotypic changes) ([1]; 10 µM inhibitor): Deg
- Descriptors Day 2 (phenotypic changes) ([1]; 10 µM inhibitor): Deg
- Severity score Day 1 [1]: 4 and 4/4
- Severity score Day 2 [1]: 4 and 4/4
- Severity score Day 3 [1]: 4
- Severity score Day 4 [1]: 4
- koff (recombinant SmCB1): 0.0003 ± 2e-05 s⁻¹
- binding kinetics (shape of progress curves) (recombinant SmCB1; Figure 2): slow-binding
- Ki (recombinant SmCB1; [3]): 0.0194 ± 0.0014 µM
- SmCB1 inhibition k2nd (second-order rate constant) (recombinant SmCB1; slow-binding azadipeptide nitriles, substrate Cbz-Phe-Arg-AMC): 15.7 ± 1.1 10^3 M^-1 s^-1

Compound: CC(C)[C@H](NC(=O)OCc1ccccc1)C(=O)N(C)N(C)C#N [Compound 14a]
- Descriptors Day 1 (phenotypic changes) ([1]; 10 µM inhibitor): R, Unc, Dark
- Descriptors Day 2 (phenotypic changes) ([1]; 10 µM inhibitor): Deg
- Severity score Day 1 [1]: 3
- Severity score Day 2 [1]: 4
- Severity score Day 3 [1]: 4
- Severity score Day 4 [1]: 4
- Ki (recombinant SmCB1; [3]): 0.0883 ± 0.0104 µM

Compound: N#CCNC(=O)[C@H](CC1CCCCC1)NC(=O)c1ccc(-c2noc(-c3cccs3)n2)cc1 [Gü2421]
- Descriptors Day 1 (phenotypic changes) ([1]; 10 µM inhibitor): R, S
- Descriptors Day 2 (phenotypic changes) ([1]; 10 µM inhibitor): R, S
- Descriptors Day 3 (phenotypic changes) ([1]; 10 µM inhibitor): R, S, Dark
- Descriptors Day 4 (phenotypic changes) ([1]; 10 µM inhibitor): R, S, Dark
- Severity score Day 1 [1]: 2
- Severity score Day 2 [1]: 2
- Severity score Day 3 [1]: 3
- Severity score Day 4 [1]: 3
- Ki (recombinant SmCB1; [2]): 0.012 ± 0.004 µM

Compound: CC(C)(C)OC(=O)N[C@@H](Cc1cccc2ccccc12)C(=O)NCC#N [Gü1127]
- Ki (recombinant SmCB1; [2]): > 10 µM

Compound: CC(C)(C)OC(=O)N[C@@H](CC1CCCCC1)C(=O)NCC#N [Gü929]
- Ki (recombinant SmCB1; [2]): > 10 µM

Compound: CC(C)(C)OC(=O)N[C@H](Cc1ccccc1)C(=O)NCC#N [Gü1133]
- Ki (recombinant SmCB1; [2]): > 10 µM

Compound: CC(C)(C)OC(=O)N[C@@H](COCc1ccccc1)C(=O)NCC#N [Gü930]
- Ki (recombinant SmCB1; [2]): > 10 µM

Compound: CC[C@H](NC(=O)OC(C)(C)C)C(=O)NCC#N [Gü1132]
- Ki (recombinant SmCB1; [2]): > 10 µM

Compound: CSCC[C@@H](C#N)NC(=O)[C@H](Cc1ccccc1)NC(=O)OC(C)(C)C [Gü968]
- Ki (recombinant SmCB1; [2]): > 10 µM

Compound: CC(C)(C)OC(=O)N[C@@H](Cc1csc2ccccc12)C(=O)NCC#N [Gü1246]
- Ki (recombinant SmCB1; [2]): > 10 µM

Compound: CC(C)(C)OC(=O)NCC(=O)NCC#N [Gü807]
- Ki (recombinant SmCB1; [2]): > 10 µM

Compound: C[C@H](NC(=O)OC(C)(C)C)C(=O)NCC#N [Gü933]
- Ki (recombinant SmCB1; [2]): > 10 µM

Compound: N#CCNC(=O)C1(NC(=O)OCc2ccccc2)CCCCC1 [Gü2195]
- Ki (recombinant SmCB1; [2]): > 10 µM

Compound: CC(C)(C)OC(=O)N[C@@H](Cc1cccc(Br)c1)C(=O)NCC#N [Gü1122]
- Ki (recombinant SmCB1; [2]): > 10 µM

Compound: CC(C)(C)OC(=O)N[C@@H](CCc1ccccc1)C(=O)NCC#N [Gü1129]
- Ki (recombinant SmCB1; [2]): > 10 µM

Compound: CC(C)(C)OC(=O)N1CCC[C@H]1C(=O)NCC#N [Gü936]
- Ki (recombinant SmCB1; [2]): > 10 µM

Compound: CC(C)(C)OC(=O)N[C@@H](Cc1ccccc1)C(=O)N[C@H](C#N)CC#N [Gü970]
- Ki (recombinant SmCB1; [2]): > 10 µM

Compound: CC(C)(C)OC(=O)N[C@@H](Cc1ccc(O)cc1)C(=O)NCC#N [Gü915]
- Ki (recombinant SmCB1; [2]): > 10 µM

Compound: CC(C)(C)OC(=O)N[C@@H](Cc1ccc(Br)cc1)C(=O)NCC#N [Gü1121]
- Ki (recombinant SmCB1; [2]): > 10 µM

Compound: CC(C)(C)OC(=O)N[C@@H](Cc1ccccc1F)C(=O)NCC#N [Gü1242]
- Ki (recombinant SmCB1; [2]): > 10 µM

Compound: CC(C)C[C@H](NC(=O)OCc1ccccc1)C(=O)NCC#N [Gü928]
- Ki (recombinant SmCB1; [2]): > 10 µM

Compound: CSCC[C@H](NC(=O)OC(C)(C)C)C(=O)NCC#N [Gü935]
- Ki (recombinant SmCB1; [2]): > 10 µM
